Reference: patent publication US11559559B2, “Angiotensin II alone or in combination for the treatment of hypotension” (The George Washington University a Congressionally …, priority 2013, dated 2023)

Tested on: patients with high output shock
Conditions: in vivo
Experimental: The investigators, clinical support staff, the patients and their families were unaware of the treatment assignment for the duration of the study.
Enrolled patients were randomized to receive the Study Drug infusion in normal saline calculated to run at a drip rate corresponding to an initial concentration of 20 ng/kg/min, plus the standard-of-care treatment for high output shock. The Study Drug was prepared in an opaque cellophane bag, the contents of which were unknown to the investigators, nurses or anyone else taking direct care of the patient. The Study Drug was administered for a total of 6 hours, with dose (and corresponding drip rate) adjustments made hourly. Study Drug dose adjustments were determined per a pre-specified protocol, based on the concomitant requirements of standard-of-care therapy (in all cases, norepinephrine infusion plus vasopressin, epinephrine and/or phenylephrine infusions) needed to maintain a mean arterial pressure (MAP) at or above 65 mm Hg, which is the standard practice at our institution. […] At the end of 6 hours, the Study Drug infusion was titrated off by being halved every 10 minutes until the Study Drug infusion dose was below 5 ng/kg/min, after which it was discontinued.
A small cohort of patients was analyzed, consistent with similar studies of this nature. […] An independent data and safety monitor (DSM) was assigned and reviewed all adverse events.

CC[C@H](C)[C@H](NC(=O)[C@H](Cc1ccc(O)cc1)NC(=O)[C@@H](NC(=O)[C@H](CCCNC(=N)N)NC(=O)[C@@H](N)CC(=O)O)C(C)C)C(=O)N[C@@H](Cc1cnc[nH]1)C(=O)N1CCC[C@H]1C(=O)N[C@@H](Cc1ccccc1)C(=O)O [ATII, angiotensin II]
Adverse events: Acidosis: 2
Adverse events: Atrial Fibrillation: 2
Adverse events: Blood or lymphatic disorders: 3
Adverse events: Cardiac disorders: 7
Adverse events: Decreased urine output: 3
Adverse events: Hypertension: 2
Adverse events: Hypotension: 2
Adverse events: Metabolic disorders: 11
Adverse events: Other disorders: 5
Adverse events: Renal disorders: 6
Adverse events: Respiratory disorders: 3
Adverse events: Wheezing: 1
Adverse events: Worsening AKI: 0
Adverse events: Worsening MOSF: 2
Adverse events: Worsening respiratory failure: 1
hypertension, patients receiving ATII in whom it occurred: 20%
patients in whom ATII infusion was discontinued due to hypertension: ^⋄ATII infusion was discontinued in two patients due to hypertension.
tolerability: well-tolerated
